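96-well plates; 48 h exposure; 5 concentrations. Endpoints by linear interpolation between flanking doses. Not reached: highest tested concentration assigned. GI50 marks 50% less growth.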 The source made the active and inactive calls. No stated cut-off is given here; in the data, active = GI50 up to about 1.1 µM and inactive = higher.
What was measured:
Experiment in all cases: NCI tumour cell line growth inhibition, 48 h
K562 = system: K562
M14 = system: M14
SF-268 = system: SF-268
LOX IMVI = system: LOX IMVI
A498 = system: A498
COLO 205 = system: COLO 205
HCT-15 = system: HCT-15
UO-31 = system: UO-31
SK-MEL-28 = system: SK-MEL-28
NCI-H23 = system: NCI-H23
SW-620 = system: SW-620
NCI-H522 = system: NCI-H522
MDA-MB-435 = system: MDA-MB-435
HL-60 = system: HL-60
OVCAR-8 = system: OVCAR-8
HCT-116 = system: HCT-116
NCI-H226 = system: NCI-H226
SN12C = system: SN12C
CAKI-1 = system: CAKI-1
MDA-MB-231 = system: MDA-MB-231
UACC-257 = system: UACC-257
HT-29 = system: HT-29
MCF7 = system: MCF7
KM12 = system: KM12
EKVX = system: EKVX
OVCAR-3 = system: OVCAR-3
IGROV-1 = system: IGROV-1
SK-MEL-2 = system: SK-MEL-2
RXF 393 = system: RXF 393
A549 = system: A549
SF-539 = system: SF-539
SNB-19 = system: SNB-19
RPMI-8226 = system: RPMI-8226
CCRF-CEM = system: CCRF-CEM
OVCAR-5 = system: OVCAR-5
BT-549 = system: BT-549
HOP-92 = system: HOP-92
T47D = system: T47D
SK-MEL-5 = system: SK-MEL-5
NCI/ADR-RES = system: NCI/ADR-RES
Malme-3M = system: Malme-3M
SR = system: SR
786-0 = system: 786-0
SF-295 = system: SF-295
SNB-75 = system: SNB-75
NCI-H460 = system: NCI-H460
HCC 2998 = system: HCC 2998
MOLT-4 = system: MOLT-4
MDA-N = system: MDA-N
OVCAR-4 = system: OVCAR-4
PC-3 = system: PC-3
SK-OV-3 = system: SK-OV-3
U-251 = system: U-251
TK-10 = system: TK-10
Hs-578T = system: Hs-578T

`N#Cc1c(O)c(/C=N/c2ncccn2)c(=O)n2c1[nH]c1ccccc12` was tested, and the GI50 (K562) was > 100 µM (inactive), the GI50 (M14) was > 100 µM (inactive) and the GI50 (SF-268) was > 100 µM (inactive). For the same compound, the GI50 (LOX IMVI) was > 100 µM (inactive), the GI50 (A498) was > 100 µM (inactive) and the GI50 (COLO 205) was > 100 µM (inactive). The GI50 (HCT-15) was greater than 100 µM, the GI50 (UO-31) was > 100 µM (inactive) and the GI50 (SK-MEL-28) was > 100 µM (inactive). For the same compound, the GI50 (NCI-H23) was > 100 µM (inactive), the GI50 (SW-620) was > 100 µM (inactive) and the GI50 (NCI-H522) was > 100 µM (inactive). The GI50 (MDA-MB-435) was > 100 µM (inactive), the GI50 (HL-60) was > 100 µM (inactive) and the GI50 (OVCAR-8) was > 100 µM (inactive). For the same compound, the GI50 (HCT-116) was > 100 µM (inactive), the GI50 (NCI-H226) was > 100 µM (inactive) and the GI50 (SN12C) was > 100 µM (inactive). The GI50 (CAKI-1) was > 100 µM (inactive), the GI50 (MDA-MB-231) was > 100 µM (inactive) and the GI50 (UACC-257) was > 100 µM (inactive). For the same compound, the GI50 (HT-29) was > 100 µM (inactive), the GI50 (MCF7) was 88.9 µM (inactive) and the GI50 (KM12) was > 100 µM (inactive). For the same compound, the GI50 (EKVX) was > 100 µM (inactive), the GI50 (OVCAR-3) was > 100 µM (inactive) and the GI50 (IGROV-1) was > 100 µM (inactive). For the same compound, the GI50 (SK-MEL-2) was > 100 µM (inactive), the GI50 (RXF 393) was > 100 µM (inactive) and the GI50 (A549) was > 100 µM (inactive). For the same compound, the GI50 (SF-539) was > 100 µM (inactive), the GI50 (SNB-19) was > 100 µM (inactive) and the GI50 (RPMI-8226) was > 100 µM (inactive). For the same compound, the GI50 (CCRF-CEM) was > 100 µM (inactive), the GI50 (OVCAR-5) was > 100 µM (inactive) and the GI50 (BT-549) was > 100 µM (inactive). For the same compound, the GI50 (HOP-92) was > 100 µM (inactive), the GI50 (T47D) was > 100 µM (inactive) and the GI50 (SK-MEL-5) was > 100 µM (inactive). The GI50 (NCI/ADR-RES) was > 100 µM (inactive), the GI50 (Malme-3M) was > 100 µM (inactive) and the GI50 (SR) was > 100 µM (inactive). For the same compound, the GI50 (786-0) was > 100 µM (inactive), the GI50 (SF-295) was > 100 µM (inactive) and the GI50 (SNB-75) was 44.1 µM (inactive). The GI50 (NCI-H460) was > 100 µM (inactive), the GI50 (HCC 2998) was > 100 µM (inactive) and the GI50 (MOLT-4) was > 100 µM (inactive). The GI50 (MDA-N) was > 100 µM (inactive), the GI50 (OVCAR-4) was > 100 µM (inactive) and the GI50 (PC-3) was > 100 µM (inactive). The GI50 (SK-OV-3) was > 100 µM (inactive), the GI50 (U-251) was > 100 µM (inactive) and the GI50 (TK-10) was > 100 µM (inactive). The GI50 (Hs-578T) was > 100 µM (inactive).
